Data reported in patent publication US6043217A, “Amide derivative of amythiamicin” (Zaidan Hojin Biseibutsu Kagaku Kenyu Kai, priority 1996, dated 2000).

Key:
Assay type in all cases: cell-based
[1] = test system: Bacillus subtilis PCI 219; assay: MIC, standard serial dilution method; conditions: Muller-Hinton agar medium, 37° C.
[2] = test system: Pseudomonas aeruginosa GN315; assay: MIC, standard serial dilution method; conditions: Muller-Hinton agar medium, 37° C.
[3] = test system: Staphylococcus aureus MS 9610; assay: MIC, standard serial dilution method; conditions: Muller-Hinton agar medium, 37° C.
Escherichia coli NIHJ = assay: MIC, standard serial dilution method; conditions: Muller-Hinton agar medium, 37° C.
Proteus vulgaris OX 19 = assay: MIC, standard serial dilution method; conditions: Muller-Hinton agar medium, 37° C.
[4] = test system: Pseudomonas aeruginosa A3; assay: MIC, standard serial dilution method; conditions: Muller-Hinton agar medium, 37° C.
Escherichia coli K-12 = assay: MIC, standard serial dilution method; conditions: Muller-Hinton agar medium, 37° C.
Bacillus anthracis = conditions: Muller-Hinton agar medium, 37° C.
Escherichia coli BEM 11 = assay: MIC, standard serial dilution method; conditions: Muller-Hinton agar medium, 37° C.
Salmonella typhi T-63 = assay: MIC, standard serial dilution method; conditions: Muller-Hinton agar medium, 37° C.
[5] = test system: Klebsiella pneumonia PCI 602; assay: MIC, standard serial dilution method; conditions: Klebsiella pneumonia PCI 602 (Table 2); Muller-Hinton agar medium, 37° C.
[6] = test system: Mycobacterium smegmatis ATCC 607; assay: MIC, standard serial dilution method; conditions: Muller-Hinton agar medium, 37° C.
[7] = test system: Staphylococcus aureus TY-0428; assay: MIC, standard serial dilution method; conditions: Muller-Hinton agar medium, 37° C.
[8] = test system: Shigella dysenteria JS 11910; assay: MIC, standard serial dilution method; conditions: Muller-Hinton agar medium, 37° C.
[9] = test system: Proteus mirabilis IFM OM-9; assay: MIC, standard serial dilution method; conditions: Muller-Hinton agar medium, 37° C.
[10] = test system: Bacillus cereus ATCC 10702; assay: MIC, standard serial dilution method; conditions: Muller-Hinton agar medium, 37° C.
[11] = test system: Micrococcus luteus IFO 3333; assay: MIC, standard serial dilution method; conditions: Muller-Hinton agar medium, 37° C.
Candida albicans 3147 = assay: MIC, standard serial dilution method; conditions: Muller-Hinton agar medium, 37° C.
[12] = test system: Staphylococcus aureus MS 16526; assay: MIC, standard serial dilution method; conditions: Muller-Hinton agar medium, 37° C.
[13] = test system: Escherichia coli BEM 1121; assay: MIC, standard serial dilution method; conditions: Muller-Hinton agar medium, 37° C.
[14] = test system: Micrococcus luteus FDA 16; assay: MIC, standard serial dilution method; conditions: Muller-Hinton agar medium, 37° C.
[15] = test system: Escherichia coli K-12 ML 1692; assay: MIC, standard serial dilution method; conditions: Muller-Hinton agar medium, 37° C.
Procedure: (§1) The antibacterial activities of the amythiamicin amide derivative of the general formula (I) according to this invention are now concretely described. Compounds No. 1 to No. 11 according to this invention, which were respectively prepared in Examples 1 to 11 hereinafter given, were tested as the test compounds for their minimum inhibitory concentrations (MIC.) (μg/ml) against growth of a variety of test microorganisms by a standard serial dilution method. In the tests, the incubation medium used was Muller-Hinton agar medium and the incubation temperature was 37° C. The test results are shown as antibacterial spectra in the following Tables 2 and 3.

[16] = test system: Shigella clexnerl JS 11749; assay: MIC, standard serial dilution method; conditions: Muller-Hinton agar medium, 37° C.
Procedure: as §1

Shigella sonnei JS 11746 = assay: MIC, standard serial dilution method; conditions: Muller-Hinton agar medium, 37° C.
Procedure: as §1

[17] = test system: Providencia rettgeri GN 311; assay: MIC, standard serial dilution method; conditions: Muller-Hinton agar medium, 37° C.
[18] = test system: Providencia rettgeri GN 466; assay: MIC, standard serial dilution method; conditions: Muller-Hinton agar medium, 37° C.
[19] = test system: Staphylococcus aureus No. 5 (MRSA); assay: MIC, standard serial dilution method; conditions: Muller-Hinton agar medium, 37° C.
[20] = test system: Staphylococcus aureus FDA 209P; assay: MIC, standard serial dilution method; conditions: Muller-Hinton agar medium, 37° C.
Escherichia coli BE 1186 = assay: MIC, standard serial dilution method; conditions: Muller-Hinton agar medium, 37° C.
[21] = test system: Staphylococcus aureus Smith; assay: MIC, standard serial dilution method; conditions: Muller-Hinton agar medium, 37° C.
[22] = test system: Corynebacterium bovis 1810; assay: MIC, standard serial dilution method; conditions: Muller-Hinton agar medium, 37° C.
[23] = test system: Salmonella enteritidis 1891; assay: MIC, standard serial dilution method; conditions: Muller-Hinton agar medium, 37° C.
[24] = test system: Staphylococcus aureus No. 17 (MRSA); assay: MIC, standard serial dilution method; conditions: Muller-Hinton agar medium, 37° C.
[25] = test system: Micrococcus luteus PIC 1001; assay: MIC, standard serial dilution method; conditions: Muller-Hinton agar medium, 37° C.
Serratia marcescens = assay: MIC, standard serial dilution method; conditions: Muller-Hinton agar medium, 37° C.
[26] = test system: Bacillus subtilis NRRL B-558; assay: MIC, standard serial dilution method; conditions: Muller-Hinton agar medium, 37° C.

SMILES	Minimum growth inhibitory concentrations (MIC.) [1]	Minimum growth inhibitory concentrations (MIC.) [2]	Minimum growth inhibitory concentrations (MIC.) [3]	Minimum growth inhibitory concentrations (MIC.) (Escherichia coli NIHJ)	Minimum growth inhibitory concentrations (MIC.) (Proteus vulgaris OX 19)	Minimum growth inhibitory concentrations (MIC.) [4]	Minimum growth inhibitory concentrations (MIC.) (Escherichia coli K-12)	Minimum growth inhibitory concentrations (MIC.) (Bacillus anthracis)	Minimum growth inhibitory concentrations (MIC.) (Escherichia coli BEM 11)	Minimum growth inhibitory concentrations (MIC.) (Salmonella typhi T-63)	Minimum growth inhibitory concentrations (MIC.) [5]	Minimum growth inhibitory concentrations (MIC.) [6]	Minimum growth inhibitory concentrations (MIC.) [7]	Minimum growth inhibitory concentrations (MIC.) [8]	Minimum growth inhibitory concentrations (MIC.) [9]	Minimum growth inhibitory concentrations (MIC.) [10]	Minimum growth inhibitory concentrations (MIC.) [11]	Minimum growth inhibitory concentrations (MIC.) (Candida albicans 3147)	Minimum growth inhibitory concentrations (MIC.) [12]	Minimum growth inhibitory concentrations (MIC.) [13]	also measured
CCCCNCCCNCCCNC(=O)c1csc(-c2ccc3c(n2)-c2csc(n2)-c2csc(n2)C(C(C)C)NC(=O)CNC(=O)c2csc(n2)C(C(C)C)NC(=O)c2nc(sc2C)C(CC(=O)NC)NC(=O)c2csc-3n2)n1 (stereo not drawn) [Compound No. 6]	> 100 µg/mL	> 100 µg/mL	> 100 µg/mL	> 100 µg/mL	> 100 µg/mL	> 100 µg/mL	> 100 µg/mL	25 µg/mL	> 100 µg/mL	> 100 µg/mL	> 100 µg/mL	> 100 µg/mL	> 100 µg/mL	> 100 µg/mL	> 100 µg/mL	> 100 µg/mL	> 100 µg/mL	> 100 µg/mL	> 100 µg/mL	> 100 µg/mL	Minimum growth inhibitory concentrations (MIC.) [14]: > 100 µg/mL; Minimum growth inhibitory concentrations (MIC.) [15]: > 100 µg/mL; Minimum growth inhibitory concentrations (MIC.) [16]: > 100 µg/mL; Minimum growth inhibitory concentrations (MIC.) (Shigella sonnei JS 11746): > 100 µg/mL; Minimum growth inhibitory concentrations (MIC.) [17]: > 100 µg/mL; Minimum growth inhibitory concentrations (MIC.) [18]: > 100 µg/mL; Minimum growth inhibitory concentrations (MIC.) [19]: > 100 µg/mL; Minimum growth inhibitory concentrations (MIC.) [20]: 50 µg/mL; Minimum growth inhibitory concentrations (MIC.) (Escherichia coli BE 1186): > 100 µg/mL; Minimum growth inhibitory concentrations (MIC.) [21]: 25 µg/mL; Minimum growth inhibitory concentrations (MIC.) [22]: > 100 µg/mL; Minimum growth inhibitory concentrations (MIC.) [23]: > 100 µg/mL; Minimum growth inhibitory concentrations (MIC.) [24]: > 100 µg/mL; Minimum growth inhibitory concentrations (MIC.) [25]: > 100 µg/mL; Minimum growth inhibitory concentrations (MIC.) (Serratia marcescens): > 100 µg/mL; Minimum growth inhibitory concentrations (MIC.) [26]: 25 µg/mL
CNC(=O)CC1NC(=O)c2csc(n2)-c2ccc(-c3nc(C(=O)NCCCN(C)CCCNCCc4ccc(Cl)cc4)cs3)nc2-c2csc(n2)-c2csc(n2)C(C(C)C)NC(=O)CNC(=O)c2csc(n2)C(C(C)C)NC(=O)c2nc1sc2C (stereo not drawn) [Compound No. 7]	50 µg/mL	> 100 µg/mL	> 100 µg/mL	> 100 µg/mL	> 100 µg/mL	> 100 µg/mL	> 100 µg/mL	> 100 µg/mL	> 100 µg/mL	> 100 µg/mL	> 100 µg/mL	> 100 µg/mL	> 100 µg/mL	> 100 µg/mL	> 100 µg/mL	> 100 µg/mL	12.5 µg/mL	> 100 µg/mL	> 100 µg/mL	> 100 µg/mL	Minimum growth inhibitory concentrations (MIC.) [14]: 6.25 µg/mL; Minimum growth inhibitory concentrations (MIC.) [15]: > 100 µg/mL; Minimum growth inhibitory concentrations (MIC.) [16]: > 100 µg/mL; Minimum growth inhibitory concentrations (MIC.) (Shigella sonnei JS 11746): > 100 µg/mL; Minimum growth inhibitory concentrations (MIC.) [17]: > 100 µg/mL; Minimum growth inhibitory concentrations (MIC.) [18]: > 100 µg/mL; Minimum growth inhibitory concentrations (MIC.) [19]: > 100 µg/mL; Minimum growth inhibitory concentrations (MIC.) [20]: > 100 µg/mL; Minimum growth inhibitory concentrations (MIC.) (Escherichia coli BE 1186): > 100 µg/mL; Minimum growth inhibitory concentrations (MIC.) [21]: > 100 µg/mL; Minimum growth inhibitory concentrations (MIC.) [22]: 25 µg/mL; Minimum growth inhibitory concentrations (MIC.) [23]: > 100 µg/mL; Minimum growth inhibitory concentrations (MIC.) [24]: > 100 µg/mL; Minimum growth inhibitory concentrations (MIC.) [25]: 12.5 µg/mL; Minimum growth inhibitory concentrations (MIC.) (Serratia marcescens): > 100 µg/mL; Minimum growth inhibitory concentrations (MIC.) [26]: > 100 µg/mL
